In one test the target is human ENPP2 (Homo sapiens (Human), UniProt Q13822). Briefly: Measurement of Human ENPP2 Inhibitory Activity. Conditions: 1 μM test compound; 16:0-LPC substrate, choline production; read-out: ENPP2 inhibition rate(%) (1 μM). Type of test: biochemical. The protocol:
10 μL of a test compound solution (10% dimethyl sulfoxide) at each concentration and 40 μL of a 5 μg/mL human ENPP2 solution (buffer A: 100 mmol/L Tris-HCl (pH 9.0), 500 mmol/L NaCl, 5 mmol/L MgCl2, 0.05% Triton X-100) were mixed, 50 μL of a 2 mmol/L 16:0-lysophosphatidylcholine (LPC) solution (buffer A) was further added to react at 37° C. for 24 hours. Subsequently, to 10 μL of the reaction solution was added 90 μL of a measurement buffer (0.5 mmol/L aminoantipyrine, 0.3 mmol/L N-ethyl-N-(2-hydroxy-3-sulfopropyl)-3-methylaniline, 1 U/mL peroxidase, 3 U/mL choline oxidase, 100 mmol/L Tris-HCl (pH 8.5), 5 mmol/L CaCl2) to react at 37° C. for 20 minutes, and spectrophotometric determination was performed at 555 nm.
Using a standard curve, a choline production amount (enzyme activity) in each test compound was calculated, and the inhibitory activity rate of each test compound was calculated, wherein the enzyme activity in a positive control to which a test compound is not added, was a 0% inhibition rate, and the enzyme activity in a negative control to which a test compound and human ENPP2 are not added, were 100% inhibition. Further, concerning the present compounds shown in Table 3, an IC50 value was calculated from inhibitory activity rate at each concentration.

Test [1] has as its system urethra internal pressure of a rat. Briefly: Measurement of Urethra Internal Pressure in Rat Under Anesthesia. It is filed as in vivo. The following applies: SD male rat under urethane anesthesia, intravenous. The text has this: A SD male rat (Crl: CD(SD), Charles River Laboratories Japan, Inc., 7-10 weeks old) was anesthetized by subcutaneous administration of 1.5 g/kg urethane at a back of a neck. After neck median incision, a jugular vein catheter for intravenous administration was inserted. A lower abdominal part was median incised, and a urethra was ligated at around pubis. A urethral catheter for measuring a urethra internal pressure, equipped with a collar at a tip and filled with a physiological saline was inserted into a urethra through an incised bladder top, and ligation-fixed at a bladder neck part. The urethral catheter was connected to a pressure transducer (manufactured by Nihon Kohden Corporation), and a urethra internal pressure was measured. […] A urethra internal pressure reduction rate (%) was calculated based on a urethra internal pressure after compound administration, wherein a value obtained by subtracting a postmortem baseline value (minimum value of urethra internal pressure for 10 minutes after administration of somnopentyl) from a urethra internal pressure value before compound administration (0 minute) was 100%.

Molecules are shown by their SMILES.

Turning to `O=C(CC12CCC(C(=O)O)(CC1)CC2)N1CCc2c(n(Cc3ccc(Cl)cc3F)c3ncccc23)C1` [Example 31(142), 4-{2-[9-(4-chloro-2-fluorobenzyl)-5,6,8,9-tetrahydro-7H-pyrido[4′,3′:4,5]pyrrolo[2,3-b]pyridin-7-yl]-2-oxoethyl}bicyclo[2.2.2]octane-1-carboxylic acid], on human ENPP2, the inhibition at 1 µM came out at 98.6%.

For `O=C(O)CCCCC(=O)N1CCc2c(n(CCCc3ccccc3)c3ccccc23)C1` [Example 3, 6-oxo-6-[9-(3-phenylpropyl)-1,3,4,9-tetrahydro-2H-beta-carbolin-2-yl]hexanoic acid], the urethra internal pressure result in test [1] (dose 0.1, 0.3, 1.0 mg/kg, FIG. 1) is “significantly reduced a urethra internal pressure”.

Regarding `O=C(C[C@H]1CC[C@H](C(=O)O)CC1)N1CCc2c(n(Cc3ccc(Cl)cc3F)c3ncccc23)C1` [Example 31(24), trans-4-{2-[9-(4-chloro-2-fluorobenzyl)-5,6,8,9-tetrahydro-7H-pyrido[4′,3′:4,5]pyrrolo[2,3-b]pyridin-7-yl]-2-oxoethyl}cyclohexanecarboxylic acid], the urethra internal pressure entry in test [1] (dose 0.03, 0.1, 0.3 mg/kg, FIG. 2) is recorded as “significantly reduced a urethra internal pressure”.

(Values after patent US9636330B2, “Tetrahydrocarboline derivative” (ONO PHARMACEUTICAL CO., LTD., priority 2010, dated 2017).)
